Source: US10208089B2, “Modulation of complement activity” (priority 2014, dated 2019)
Starred links: 1 amine or outer side, 2 acyl side, 3 side chain; linkers in the order of their positions; H or OH if unused. Positions of bridges follow the written chain, without caps; N, C: chain ends. Non-standard residues stand in square brackets, D forms with d. Residues, ends and D or L forms follow the SMILES beside them. Ala(1H-tetrazol-5-yl) = N[C@@H](Cc1nnn[nH]1)C(=O)O; Trp(5-F) = N[C@@H](Cc1c[nH]c2ccc(F)cc12)C(=O)O; Trp(7-aza) = N[C@@H](Cc1c[nH]c2ncccc12)C(=O)O; mXylylene = c1cc(C[*:1])cc(C[*:2])c1; pXylylene = c1cc(C[*:2])ccc1C[*:1]; dPhg = N[C@@H](C(=O)O)c1ccccc1; Phg = N[C@H](C(=O)O)c1ccccc1; Tle = CC(C)(C)[C@H](N)C(=O)O; NMeS = CN[C@@H](CO)C(=O)O; hCys = N[C@@H](CCS)C(=O)O; Nva = CCC[C@H](N)C(=O)O

Target: C5 (Homo sapiens, UniProt P01031)
Test: Human hemolysis assay (RBC lysis assay using complete human sera)
Type: cell-based
Design: with complete human sera (Complement Technology, Tyler Tex.) and polypeptides; tissue Complement Technology, Tyler Tex; host or cells: complete human serum
[1] = inhibition of lysis of antibody-sensitized sheep erythrocytes, complete human sera
[2] = 7-azatryptophan variant polypeptides of R3008, inhibition of red blood cell lysis

Chain of C5 (P01031 19-1676): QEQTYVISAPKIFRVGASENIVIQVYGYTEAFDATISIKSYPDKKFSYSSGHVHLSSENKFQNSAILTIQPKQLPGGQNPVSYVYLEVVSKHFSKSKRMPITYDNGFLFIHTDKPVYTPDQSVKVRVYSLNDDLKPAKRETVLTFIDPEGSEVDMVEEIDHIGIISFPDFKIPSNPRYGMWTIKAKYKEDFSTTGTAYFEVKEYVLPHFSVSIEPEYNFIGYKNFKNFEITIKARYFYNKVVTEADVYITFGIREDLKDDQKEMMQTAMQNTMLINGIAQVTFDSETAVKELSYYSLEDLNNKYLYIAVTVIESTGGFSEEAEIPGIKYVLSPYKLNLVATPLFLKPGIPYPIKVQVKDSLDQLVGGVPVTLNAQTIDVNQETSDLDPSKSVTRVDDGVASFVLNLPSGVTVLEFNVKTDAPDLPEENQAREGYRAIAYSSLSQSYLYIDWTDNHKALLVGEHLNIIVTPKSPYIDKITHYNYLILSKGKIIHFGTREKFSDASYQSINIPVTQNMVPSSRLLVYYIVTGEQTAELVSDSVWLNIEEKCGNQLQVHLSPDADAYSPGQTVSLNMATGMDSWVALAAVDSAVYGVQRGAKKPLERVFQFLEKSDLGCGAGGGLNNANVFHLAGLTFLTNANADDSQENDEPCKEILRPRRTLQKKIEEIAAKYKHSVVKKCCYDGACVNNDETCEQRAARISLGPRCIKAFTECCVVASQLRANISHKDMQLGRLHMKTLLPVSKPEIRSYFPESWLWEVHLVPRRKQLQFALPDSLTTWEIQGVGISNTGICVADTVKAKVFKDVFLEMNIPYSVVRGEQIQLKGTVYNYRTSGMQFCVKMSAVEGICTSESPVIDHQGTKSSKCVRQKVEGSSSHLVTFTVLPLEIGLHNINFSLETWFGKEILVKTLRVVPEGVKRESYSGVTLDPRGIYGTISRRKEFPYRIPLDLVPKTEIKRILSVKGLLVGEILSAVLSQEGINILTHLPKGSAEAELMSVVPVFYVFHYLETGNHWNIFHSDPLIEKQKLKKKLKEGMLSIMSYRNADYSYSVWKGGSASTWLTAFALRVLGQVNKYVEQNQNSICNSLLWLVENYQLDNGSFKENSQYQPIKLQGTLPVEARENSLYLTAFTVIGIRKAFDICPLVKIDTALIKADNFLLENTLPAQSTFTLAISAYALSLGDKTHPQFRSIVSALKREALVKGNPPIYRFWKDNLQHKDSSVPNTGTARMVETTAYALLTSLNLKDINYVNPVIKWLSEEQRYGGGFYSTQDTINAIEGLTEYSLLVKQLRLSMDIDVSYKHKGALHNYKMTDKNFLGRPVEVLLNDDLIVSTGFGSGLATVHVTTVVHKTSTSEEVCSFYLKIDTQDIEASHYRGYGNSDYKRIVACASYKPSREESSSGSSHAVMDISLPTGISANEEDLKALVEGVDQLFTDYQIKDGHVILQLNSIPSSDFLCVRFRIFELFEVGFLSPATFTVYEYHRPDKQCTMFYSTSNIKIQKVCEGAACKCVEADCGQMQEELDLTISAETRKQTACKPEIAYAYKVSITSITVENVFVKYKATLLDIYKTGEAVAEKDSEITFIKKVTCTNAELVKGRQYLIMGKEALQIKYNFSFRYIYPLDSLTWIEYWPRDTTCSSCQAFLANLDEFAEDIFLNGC

Row | SMILES | IC50 [1] | also measured
1 | CC(=O)N[C@H]1CSCc2cccc(c2)CSC[C@@H](C(=O)N[C@@H](Cc2c[nH]c3ccccc23)C(=O)N[C@@H](CCC(=O)O)C(=O)N[C@@H](Cc2ccccc2)C(N)=O)NC(=O)[C@H](Cc2ccccc2)NC(=O)[C@H](CCCNC(=N)N)NC(=O)[C@H](CCC(=O)O)NC(=O)[C@H](C(C)C)NC1=O [Compound R3125, [mXylyl(1,6)]Ac-C-V-E-R-F-C-W-E-F-NH2] (Ac-CVERFCWEF-NH2; linker 1-6 via mXylylene) | > 100 µM | ability to inhibit red blood cell lysis compared with the parent polypeptide (in words) (variants of R3021, R3002 or R3008): decrease in the ability; IC50 (variants of R3021 with internal amino acid deletions, inhibition of red blood cell lysis): > 100 µM
2 | CCC[C@H](NC(=O)[C@@H]1CCSCc2ccc(cc2)CSC[C@H](NC(=O)[C@H](CCC)NC(C)=O)C(=O)N[C@@H](c2ccccc2)C(=O)N[C@@H]([C@@H](C)O)C(=O)N[C@@H](Cc2c[nH]c3ncccc23)C(=O)N[C@@H](CCC(=O)O)C(=O)N[C@@H](Cc2ccc(O)cc2)C(=O)N(C)[C@@H](CO)C(=O)N[C@@H](Cc2c[nH]cn2)C(=O)N1)C(N)=O [Compound R3106, [pXylyl(2,10)]Ac-Nvl-C-Phg-T-azaTrp-E-Y-(N-Me)S-H-homoC-Nvl-NH2] (Ac-[Nva]C[Phg]T[Trp(7-aza)]EY[NMeS]H[hCys][Nva]-NH2; linker 2-10 via pXylylene) | > 5 µM | 
3 | CCC[C@H](NC(=O)[C@@H]1CSCc2cccc(c2)CSC[C@H](NC(=O)[C@H](CCC)NC(C)=O)C(=O)N[C@@H](c2ccccc2)C(=O)N[C@@H]([C@@H](C)O)C(=O)N[C@@H](Cc2c[nH]c3ccc(F)cc23)C(=O)N[C@@H](CCC(=O)O)C(=O)N[C@@H](Cc2ccc(O)cc2)C(=O)N(C)[C@@H](CO)C(=O)N[C@@H](C)C(=O)N1)C(N)=O [Compound R3088, [mXyly1(2,10)]Ac-Nvl-C-Phg-T-(5-F)W-E-Y-(N-Me)S-A-C-Nvl-NH2] (Ac-[Nva]C[Phg]T[Trp(5-F)]EY[NMeS]AC[Nva]-NH2; linker 2-10 via mXylylene) | > 100 µM | IC50 [2]: > 100 µM
4 | CCC[C@H](NC(=O)[C@@H]1CCCN1C(=O)[C@H](CCC)NC(=O)[C@H](CS)NC(=O)[C@H](Cc1c[nH]cn1)NC(=O)[C@H](CO)N(C)C(=O)[C@H](Cc1ccc(O)cc1)NC(=O)[C@H](CCC(=O)O)NC(=O)[C@H](Cc1c[nH]c2ncccc12)NC(=O)[C@@H](NC(=O)[C@@H](NC(=O)[C@H](CS)NC(=O)[C@H](CCC)NC(C)=O)c1ccccc1)[C@@H](C)O)C(N)=O [Compound R3022, Ac-Nvl-C-Phg-T-azaTrp-E-Y-(N-Me)S-H-C-Nvl-P-Nvl-NH2] (Ac-[Nva]C[Phg]T[Trp(7-aza)]EY[NMeS]HC[Nva]P[Nva]-NH2) | > 10.2 µM | 
5 | CCC[C@H](NC(=O)[C@@H]1CSCc2cccc(c2)CSC[C@H](NC(=O)[C@H](CCC)NC(C)=O)C(=O)N[C@@H](c2ccccc2)C(=O)N[C@@H]([C@@H](C)O)C(=O)N[C@@H](Cc2c[nH]c3ncccc23)C(=O)N[C@@H](CC(=O)O)C(=O)N[C@@H](Cc2ccc(O)cc2)C(=O)N(C)[C@@H](CO)C(=O)N[C@@H](C)C(=O)N1)C(N)=O [Compound R3097, [mXylyl(2,10)]Ac-Nvl-C-Phg-T-azaTrp-D-Y-(N-Me)S-A-C-Nvl-NH2] (Ac-[Nva]C[Phg]T[Trp(7-aza)]DY[NMeS]AC[Nva]-NH2; linker 2-10 via mXylylene) | > 100 µM | 
6 | CSCC[C@H](N)C(=O)N[C@H]1CSCc2cccc(c2)CSC[C@@H](C(=O)N[C@@H](CC(=O)O)C(=O)N[C@H](C(N)=O)C(C)C)NC(=O)[C@H](Cc2ccccc2)NC(=O)[C@H](CCCNC(=N)N)NC(=O)[C@H](CCC(=O)O)NC(=O)[C@H](C(C)C)NC1=O [Compound R3046, [mXylyl(2,7)]M-C-V-E-R-F-C-D-V-NH2] (H-MCVERFCDV-NH2; linker 2-7 via mXylylene) | > 100 µM | IC50 (C-terminally truncated polypeptide variants of R3021, inhibition of red blood cell lysis): > 100 µM
7 | CCC[C@H](NC(=O)[C@@H]1CCSCc2cccc(c2)CSCC[C@H](NC(=O)[C@H](CCC)NC(C)=O)C(=O)N[C@@H](c2ccccc2)C(=O)N[C@@H]([C@@H](C)O)C(=O)N[C@@H](Cc2c[nH]c3ncccc23)C(=O)N[C@@H](CCC(=O)O)C(=O)N[C@@H](Cc2ccc(O)cc2)C(=O)N(C)[C@@H](CO)C(=O)N[C@@H](Cc2c[nH]cn2)C(=O)N1)C(N)=O [Compound R3107, [mXylyl(2,10)]Ac-Nvl-homoC-Phg-T-azaTrp-E-Y-(N-Me)S-H-homoC-Nvl-NH2] (Ac-[Nva][hCys][Phg]T[Trp(7-aza)]EY[NMeS]H[hCys][Nva]-NH2; linker 2-10 via mXylylene) | > 75 µM | 
8 | CCC[C@H](NC(=O)[C@@H](NC(=O)[C@@H]1CCCN1C(=O)[C@H](Cc1ccc(O)cc1)NC(=O)[C@H](CCC(=O)O)NC(=O)[C@H](Cc1cn(C)c2ccccc12)NC(=O)[C@H](Cc1ccc(O)cc1)NC(=O)[C@@H](NC(=O)[C@H](CC(N)=O)NC(=O)[C@H](CCC(=O)O)NC(=O)[C@H](Cc1ccc(O)cc1)NC(C)=O)C(C)(C)C)c1ccccc1)C(N)=O [Compound R3110, Ac-Y-E-N-Tbg-Y-(1-Me)W-E-Y-P-Phg-Nvl-NH2] | 2.94 µM | 
9 | CCC[C@H](NC(=O)[C@H](NC(=O)[C@@H]1CCCN1C(=O)[C@H](Cc1ccc(O)cc1)NC(=O)[C@H](CCC(=O)O)NC(=O)[C@H](Cc1c[nH]c2ncccc12)NC(=O)[C@H](Cc1ccc(O)cc1)NC(=O)[C@@H](NC(=O)[C@H](C)NC(=O)[C@@H]1CSCc2cccc(c2)CSC[C@H](NC(C)=O)C(=O)N[C@@H](C(C)C)C(=O)N[C@@H](CCC(=O)O)C(=O)N[C@@H](CCCNC(=N)N)C(=O)N[C@@H](Cc2ccccc2)C(=O)N1)C(C)(C)C)c1ccccc1)C(N)=O [Compound R3158, [mXylyl(1,6)]Ac-C-V-E-R-F-C-A-Tbg-Y-azaTrp-E-Y-P-(D-Phg)-Nvl-NH2] (Ac-CVERFCA[Tle]Y[Trp(7-aza)]EYP[dPhg][Nva]-NH2; linker 1-6 via mXylylene) | 0.327 µM | 
10 | CCC[C@H](NC(=O)[C@@H]1CSCc2cccc(c2)CSC[C@H](NC(=O)[C@H](CCC)NC(C)=O)C(=O)N[C@@H](c2ccccc2)C(=O)N[C@@H]([C@@H](C)O)C(=O)N[C@@H](Cc2c[nH]c3ccccc23)C(=O)N[C@@H](Cc2nnn[nH]2)C(=O)N[C@@H](Cc2ccc(O)cc2)C(=O)N(C)[C@@H](CO)C(=O)N[C@@H](Cc2c[nH]cn2)C(=O)N1)C(N)=O [Compound R3131, [mXylyl(2,10)]Ac-Nvl-C-Phg-T-W-Asp(T)-Y-(N-Me)S-H-C-Nvl-NH2] (Ac-[Nva]C[Phg]TW[Ala(1H-tetrazol-5-yl)]Y[NMeS]HC[Nva]-NH2; linker 2-10 via mXylylene) | > 100 µM | IC50 [2]: > 100 µM
11 | CC(=O)N[C@H]1CSCc2cccc(c2)CSC[C@@H](C(=O)N[C@@H](CC(=O)O)C(=O)N[C@H](C(=O)N[C@@H](Cc2ccc(O)cc2)C(=O)N[C@@H](Cc2c[nH]c3ccccc23)C(=O)N[C@@H](CCC(=O)O)C(=O)N[C@@H](Cc2ccc(O)cc2)C(=O)N2CCC[C@H]2C(N)=O)C(C)(C)C)NC(=O)[C@H](Cc2ccccc2)NC(=O)[C@H](CCCNC(=N)N)NC(=O)[C@H](CCC(=O)O)NC(=O)[C@H](C(C)C)NC1=O [Compound R3143, [mXyly1(1,6)]Ac-C-V-E-R-F-C-D-Tbg-Y-W-E-Y-P-NH2] (Ac-CVERFCD[Tle]YWEYP-NH2; linker 1-6 via mXylylene) | 0.0186 µM | 
12 | CCC[C@H](NC(=O)[C@@H](NC(=O)[C@@H]1CCCN1C(=O)[C@H](Cc1ccc(O)cc1)NC(=O)[C@H](CCC(=O)O)NC(=O)[C@@H](Cc1c[nH]c2ccccc12)NC(=O)[C@H](Cc1ccc(O)cc1)NC(=O)[C@@H](NC(=O)[C@H](CC(N)=O)NC(=O)[C@H](CCC(=O)O)NC(=O)[C@H](Cc1ccc(O)cc1)NC(C)=O)C(C)(C)C)c1ccccc1)C(N)=O [Compound R3118, Ac-Y-E-N-Tbg-Y-(D-Trp)-E-Y-P-Phg-Nvl-NH2] | > 100 µM | IC50 (7-azatryptophan variant polypeptides of R3002, inhibition of red blood cell lysis): > 100 µM
13 | CCC[C@H](NC(=O)[C@@H](NC(=O)[C@@H]1CCCN1C(=O)[C@H](Cc1ccc(O)cc1)NC(=O)[C@H](CCC(=O)O)NC(=O)[C@H](Cc1c[nH]c2ccccc12)NC(=O)[C@H](Cc1ccc(O)cc1)NC(=O)[C@@H](NC(=O)[C@H](CC(N)=O)NC(=O)[C@H](CCC(=O)O)NC(=O)[C@H](Cc1ccc(O)cc1)NC(C)=O)C(C)(C)C)c1ccccc1)C(N)=O [Compound R3041, Ac-Y-E-N-Tbg-Y-W-E-Y-P-Phg-Nvl-NH2] | 0.0713 µM | 
14 | CSCC[C@H](N)C(=O)N[C@H]1CSCc2cccc(c2)CSC[C@@H](C(=O)N[C@@H](CCC(=O)O)C(=O)N[C@H](C(=O)N[C@@H](CCCNC(=N)N)C(=O)N[C@@H](Cc2c[nH]c3ccccc23)C(=O)N[C@@H](CCC(=O)O)C(=O)N[C@@H](Cc2ccc(O)cc2)C(N)=O)C(C)C)NC(=O)[C@H](Cc2ccc(O)cc2)NC(=O)[C@H](CCCNC(=N)N)NC(=O)[C@H](CCC(=O)O)NC(=O)[C@H](CO)NC1=O [Compound R3020, [mXylyl(2,7)]M-C-S-E-R-Y-C-E-V-R-W-E-Y-NH2] (H-MCSERYCEVRWEY-NH2; linker 2-7 via mXylylene) | 0.0246 µM | 
15 | CCCCCCCCCCCC(=O)NCCCC[C@H](NC(=O)[C@@H](NC(=O)[C@@H]1CCCN1C(=O)[C@H](Cc1ccc(O)cc1)NC(=O)[C@H](CCC(=O)O)NC(=O)[C@H](Cc1c[nH]c2ncccc12)NC(=O)[C@H](Cc1ccc(O)cc1)NC(=O)[C@@H](NC(=O)[C@H](CC(=O)O)NC(=O)[C@@H]1CSCc2cccc(c2)CSC[C@H](NC(C)=O)C(=O)N[C@@H](C)C(=O)N[C@@H](CCC(=O)O)C(=O)N[C@@H](CCCNC(=N)N)C(=O)N[C@@H](Cc2ccccc2)C(=O)N1)C(C)(C)C)c1ccccc1)C(N)=O [Compound R3164, [mXylyl(1,6)]Ac-C-A-E-R-F-C-D-Tbg-Y-azaTrp-E-Y-P-Phg-(Lys-C12)-NH2] | 0.036 µM | 
16 | CCC[C@H](NC(=O)[C@@H]1CSCc2cccc(c2)CSC[C@H](NC(=O)[C@H](CCC)NC(C)=O)C(=O)N[C@@H](c2ccccc2)C(=O)N[C@@H]([C@@H](C)O)C(=O)N[C@@H](Cc2c[nH]c3ncccc23)C(=O)N[C@@H](CC(N)=O)C(=O)N[C@@H](Cc2ccc(O)cc2)C(=O)N(C)[C@@H](CO)C(=O)N[C@@H](C)C(=O)N1)C(N)=O [Compound R3099, [mXylyl(2,10)]Ac-Nvl-C-Phg-T-azaTrp-N-Y-(N-Me)S-A-C-Nvl-NH2] (Ac-[Nva]C[Phg]T[Trp(7-aza)]NY[NMeS]AC[Nva]-NH2; linker 2-10 via mXylylene) | > 100 µM | 
